Laboratory results: patent EP2951180B1, “2,6,7,8 SUBSTITUTED PURINES AS HDM2 INHIBITORS” (Merck Sharp & Dohme Corp., priority 2013, dated 2014)

Target: T1, HDM2 (Homo sapiens, UniProt Q00987)
T1 construct: Thioredoxin (N); made in house; host or cells: E. coli strain BL21(DE3)Rosetta
Experiment: FRET assay (HDM2 inhibition; method not described in this part)
Format: binding
Details: Table 2

T1 sequence (Q00987 17-125): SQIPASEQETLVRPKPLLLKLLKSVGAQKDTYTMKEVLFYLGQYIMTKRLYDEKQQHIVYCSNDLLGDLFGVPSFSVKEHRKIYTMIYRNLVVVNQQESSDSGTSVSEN

SMILES | IC50 [nM]
C[C@@H](Nc1nc(C(=O)O)nc2nc(-c3ccc(Cl)cc3)n(Cc3ccc(Cl)cc3)c12)C1CC1 [Example 2.9, 7-(4-chlorobenzyl)-8-(4-chlorophenyl)-6-{[(1R)-1-cyclopropylethyl]amino}-7H-purine-2-carboxylic acid] | 43.8
C[C@@H](Nc1nc(C(=O)O)nc2nc(-c3ccc4sccc4c3)n(Cc3ccc(Cl)cc3)c12)C1CCC1 [Example 2.10, 8-(1-benzothiophen-5-yl)-7-(4-chlorobenzyl)-6-{[(1R)-1-cyclobutylethyl]amino}-7H-purine-2-carboxylic acid] | 7.2
Cc1cccc(-c2nc3nc(C(=O)O)nc(N[C@H](C)C4CCC4)c3n2Cc2ccc(C(F)(F)F)cc2)c1 [Example 2.11, 6-{[(1R)-1-cyclobutylethyl]amino}-8-(3-methylphenyl)-7-[4-(trifluoromethyl)benzyl]-7H-purine-2-carboxylic acid] | 36.6
Cc1ccc(C)c(-c2nc3nc(C(=O)O)nc(N[C@H](C)C4CC4)c3n2Cc2ccc(Cl)cc2)c1 [Example 2.12, 7-(4-chlorobenzyl)-6-{[(1R)-1-cyclopropylethyl]amino}-8-(2,5-dimethylphenyl)-7H-purine-2-carboxylic acid] | 199
Cc1cc(-c2nc3nc(C(=O)O)nc(N[C@H](C)C4CC4)c3n2Cc2ccc(Cl)cc2)ccc1F [Example 2.13, 7-(4-chlorobenzyl)-6-{[(1R)-1-cyclopropylethyl]amino}-8-(4-fluoro-3-methylphenyl)-7H-purine-2-carboxylic acid] | 40.4
COc1cccc(-c2nc3nc(C(=O)O)nc(N[C@H](C)C4CC4)c3n2Cc2ccc(C(F)(F)F)cc2)c1 [Example 2.14, 6-{[(1R)-1-cyclopropylethyl]amino}-8-(3-methoxyphenyl)-7-[4-(trifluoromethyl)benzyl]-7H-purine-2-carboxylic acid] | 339
CCOc1cccc(-c2nc3nc(C(=O)O)nc(N[C@H](C)C4CC4)c3n2Cc2ccc(C(F)(F)F)cc2)c1 [Example 2.15, 6-{[(1R)-1-cyclopropylethyl]amino}-8-(3-ethoxyphenyl)-7-[4-(trifluoromethyl)benzyl]-7H-purine-2-carboxylic acid] | 304
CCc1cccc(-c2nc3nc(C(=O)O)nc(N[C@H](C)C4CC4)c3n2Cc2ccc(C(F)(F)F)cc2)c1 [Example 2.16, 6-{[(1R)-1-cyclopropylethyl]amino}-8-(3-ethylphenyl)-7-[4-(trifluoromethyl)benzyl]-7H-purine-2-carboxylic acid] | 180
CCOc1cccc(-c2nc3nc(C(=O)O)nc(N[C@H](C)C4CCC4)c3n2Cc2ccc(C(F)(F)F)cc2)c1 [Example 2.17, 6-{[(1R)-1-cyclobutylethyl]amino}-8-(3-ethoxyphenyl)-7-[4-(trifluoromethyl)benzyl] -7H-purine-2-carboxylic acid] | 40.2
CC(C)c1cccc(-c2nc3nc(C(=O)O)nc(N[C@H](C)C4CC4)c3n2Cc2ccc(C(F)(F)F)cc2)c1 [Example 2.18, 6-{[(1R)-1-cyclopropylethyl]amino}-8-[3-(1-methylethyl)phenyl]-7-[4-(trifluoromethyl)benzyl]-7H-purine-2-carboxylic acid] | 123
C[C@@H](Nc1nc(C(=O)O)nc2nc(-c3cccc(C(C)(C)C)c3)n(Cc3ccc(C(F)(F)F)cc3)c12)C1CC1 [Example 2.19, 8-(3-tert-butylphenyl)-6-{[(1R)-1-cyclopropylethyl]amino}-7-[4-(trifluoromethyl)benzyl]-7H-purine-2-carboxylic acid] | 145
C[C@@H](Nc1nc(C(=O)O)nc2nc(-c3ccc(C(F)(F)F)cc3)n(Cc3ccc(C(F)(F)F)cc3)c12)C1CC1 [Example 2.20, 6-{[(1R)-1-cyclopropylethyl]amino}-7-[4-(trifluoromethyl)benzyl]-8-[4-(trifluoromethyl)phenyl]-7H-purine-2-carboxylic acid] | 1410
COc1ccc(-c2nc3nc(C(=O)O)nc(N[C@H](C)C4CC4)c3n2Cc2ccc(C(F)(F)F)cc2)cc1 [Example 2.21, 6-{[(1R)-1-cyclopropylethyl]amino}-8-(4-methoxyphenyl)-7-[4-(trifluoromethyl)benzyl]-7H-purine-2-carboxylic acid] | 253
C[C@@H](Nc1nc(C(=O)O)nc2nc(-c3cccc(Cl)c3)n(Cc3ccc(C(F)(F)F)cc3)c12)C1CC1 [Example 2.22, 8-(3-chlorophenyl)-6-{[(1R)-1-cyclopropylethyl]amino}-7-[4-(trifluoromethyl)benzyl]-7H-purine-2-carboxylic acid] | 124
CCc1cccc(-c2nc3nc(C(=O)O)nc(N[C@H](C)C4CCC4)c3n2Cc2ccc(C(F)(F)F)cc2)c1 [Example 2.23, 6-{[(1R)-1-cyclobutylethyl]amino}-8-(3-ethylphenyl)-7-[4-(trifluoromethyl)benzyl]-7H-purine-2-carboxylic acid] | 16.7
CC(C)c1cccc(-c2nc3nc(C(=O)O)nc(N[C@H](C)C4CCC4)c3n2Cc2ccc(C(F)(F)F)cc2)c1 [Example 2.24, 6-{[(1R)-1-cyclobutylethyl]amino}-8-[3-(1-methylethyl)phenyl]-7-[4-(trifluoromethyl)benzyl]-7H-purine-2-carboxylic acid] | 14.7
C[C@@H](Nc1nc(C(=O)O)nc2nc(-c3cccc(C(C)(C)C)c3)n(Cc3ccc(C(F)(F)F)cc3)c12)C1CCC1 [Example 2.25, 8-(3-tert-butylphenyl)-6-{[(1R)-1-cyclobutylethyl]amino}-7-[4-(trifluoromethyl)benzyl]-7H-purine-2-carboxylic acid] | 59.1
C[C@@H](Nc1nc(C(=O)O)nc2nc(-c3cccc(OC(F)(F)F)c3)n(Cc3ccc(C(F)(F)F)cc3)c12)C1CC1 [Example 2.26, 6-{[(1R)-1-cyclopropylethyl]amino}-8-[3-(trifluoromethoxy)phenyl]-7-[4-(trifluoromethyl)benzyl]-7H-purine-2-carboxylic acid] | 550
C[C@@H](Nc1nc(C(=O)O)nc2nc(-c3ccc(OC(F)(F)F)cc3)n(Cc3ccc(C(F)(F)F)cc3)c12)C1CC1 [Example 2.27, 6-{[(1R)-1-cyclopropylethyl]amino}-8-[4-(trifluoromethoxy)phenyl]-7-[4-(trifluoromethyl)benzyl]-7H-purine-2-carboxylic acid] | 1140
COc1cc(OC)cc(-c2nc3nc(C(=O)O)nc(N[C@H](C)C4CC4)c3n2Cc2ccc(C(F)(F)F)cc2)c1 [Example 2.28, 6-{[(1R)-1-cyclopropylethyl]amino}-8-(3,5-dimethoxyphenyl)-7-[4-(trifluoromethyl)benzyl]-7H-purine-2-carboxylic acid] | 455
C[C@@H](Nc1nc(C(=O)O)nc2nc(-c3cccc(N(C)C)c3)n(Cc3ccc(C(F)(F)F)cc3)c12)C1CC1 [Example 2.29, 6-{[(1R)-1-cyclopropylethyl]amino}-8-[3-(dimethylamino)phenyl]-7-[4-(trifluoromethyl)benzyl]-7H-purine-2-carboxylic acid] | 105
Cc1ccccc1-c1nc2nc(C(=O)O)nc(N[C@H](C)C3CC3)c2n1Cc1ccc(C(F)(F)F)cc1 [Example 2.30, 6-{[(1R)-1-cyclopropylethyl]amino}-8-(2-methylphenyl)-7-[4-(trifluoromethyl)benzyl]-7H-purine-2-carboxylic acid] | 140
C[C@@H](Nc1nc(C(=O)O)nc2nc(-c3ccc(Cl)c(Cl)c3)n(Cc3ccc(C(F)(F)F)cc3)c12)C1CC1 [Example 2.31, 6-{[(1R)-1-cyclopropylethyl]amino}-8-(3,4-dichlorophenyl)-7-[4-(trifluoromethyl)benzyl]-7H-purine-2-carboxylic acid] | 154
C[C@@H](Nc1nc(C(=O)O)nc2nc(-c3ccc(C(C)(C)C)cc3)n(Cc3ccc(C(F)(F)F)cc3)c12)C1CC1 [Example 2.32, 8-(4-tert-butylphenyl)-6-{[(1R)-1-cyclopropylethyl]amino}-7-[4-(trifluoromethyl)benzyl]-7H-purine-2-carboxylic acid] | 1950
Cc1ccc(-c2nc3nc(C(=O)O)nc(N[C@H](C)C4CC4)c3n2Cc2ccc(C(F)(F)F)cc2)cc1 [Example 2.33, 6-{[(1R)-1-cyclopropylethyl]amino}-8-(4-methylphenyl)-7-[4-(trifluoromethyl)benzyl]-7H-purine-2-carboxylic acid] | 401
C[C@@H](Nc1nc(C(=O)O)nc2nc(-c3ccccc3OC(F)(F)F)n(Cc3ccc(C(F)(F)F)cc3)c12)C1CC1 [Example 2.34, 6-{[(1R)-1-cyclopropylethyl]amino}-8-[2-(trifluoromethoxy)phenyl]-7-[4-(trifluoromethyl)benzyl]-7H-purine-2-carboxylic acid] | 21
C[C@@H](Nc1nc(C(=O)O)nc2nc(-c3cnn(C)c3)n(Cc3ccc(C(F)(F)F)cc3)c12)C1CC1 [Example 2.35, 6-{[(1R)-1-cyclopropylethyl]amino}-8-(1-methyl-1H-pyrazol-4-yl)-7-[4-(trifluoromethyl)benzyl]-7H-purine-2-carboxylic acid] | 510
Cc1ccc(-c2nc3nc(C(=O)O)nc(N[C@H](C)C4CC4)c3n2Cc2ccc(C(F)(F)F)cc2)cn1 [Example 2.36, 6-{[(1R)-1-cyclopropylethyl]amino}-8-(6-methylpyridin-3-yl)-7-[4-(trifluoromethyl)benzyl]-7H-purine-2-carboxylic acid] | 1300
C[C@@H](Nc1nc(C(=O)O)nc2nc(-c3cccc(N(C)C)c3)n(Cc3ccc(C(F)(F)F)cc3)c12)C1CCC1 [Example 2.37, 6-{[(1R)-1-cyclobutylethyl]amino}-8-[3-(dimethylamino)phenyl]-7-[4-(trifluoromethyl)benzyl]-7H-purine-2-carboxylic acid] | 6.6
C[C@@H](Nc1nc(C(=O)O)nc2nc(-c3cccc(C(F)(F)F)c3)n(Cc3ccc(C(F)(F)F)cc3)c12)C1CCC1 [Example 2.38, 6-{[(1R)-1-cyclobutylethyl]amino}-7-[4-(trifluoromethyl)benzyl]-8-[3-(trifluoromethyl)phenyl]-7H-purine-2-carboxylic acid] | 11.2
